Measured values from patent US20100292231A1, “Indazole Compounds for Treating Inflammatory Disorders, Demyelinating Disorders and Cancers” (priority 2007, published 2010).
Where two headings read alike, the source gives them in different places.

Legend:
Test in all cases: SelectScreen kinase specificity survey
Assay type in all cases: biochemical
MAP2K1 (MEK1) = target: T1, MAP2K1 (MEK1) (Homo sapiens, UniProt Q02750); conditions: estimated, abridged dose response curve, read-out: Kinase inhibitory activity EC50
T1 construct: purchased Invitrogen (SelectScreen platform)
T1 sequence (Q02750 whole entry): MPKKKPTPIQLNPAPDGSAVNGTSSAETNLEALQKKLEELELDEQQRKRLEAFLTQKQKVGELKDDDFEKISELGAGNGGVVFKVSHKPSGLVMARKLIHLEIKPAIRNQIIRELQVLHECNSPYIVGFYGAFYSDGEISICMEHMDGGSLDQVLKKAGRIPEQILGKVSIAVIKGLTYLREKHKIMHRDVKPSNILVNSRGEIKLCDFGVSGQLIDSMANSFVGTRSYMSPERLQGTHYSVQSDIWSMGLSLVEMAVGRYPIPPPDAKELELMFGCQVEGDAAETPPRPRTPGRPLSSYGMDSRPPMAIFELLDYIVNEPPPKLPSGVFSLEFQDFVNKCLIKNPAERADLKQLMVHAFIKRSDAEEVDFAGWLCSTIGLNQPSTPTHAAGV
How it was run: (§1)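 Kinases from all classes (230 in total) are treated with a unique substrate and optical read-out system in the presence of 100 micromolar ATP. Uninhibited controls give the baseline phosphorylation signal, and graded compound in 5 steps yields the curve for Hill fitting.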

CLK3 = target: T2, CLK3 (Homo sapiens, UniProt P49761); conditions: estimated, abridged dose response curve, read-out: Kinase inhibitory activity EC50
T2 construct: purchased Invitrogen (SelectScreen platform)
How it was run: as §1

MUSK = target: T3, MUSK (Homo sapiens, UniProt O15146); conditions: estimated, abridged dose response curve, read-out: Kinase inhibitory activity EC50
T3 construct: purchased Invitrogen (SelectScreen platform)
How it was run: as §1

LTK (TYK1) = target: T4, LTK (TYK1) (Homo sapiens, UniProt P29376); conditions: estimated, abridged dose response curve, read-out: Kinase inhibitory activity EC50
T4 construct: purchased Invitrogen (SelectScreen platform)
How it was run: as §1

PAK6 = target: T5, PAK6 (Homo sapiens, UniProt Q9NQU5); conditions: estimated, abridged dose response curve, read-out: Kinase inhibitory activity EC50
T5 construct: purchased Invitrogen (SelectScreen platform)
T5 sequence (Q9NQU5 whole entry): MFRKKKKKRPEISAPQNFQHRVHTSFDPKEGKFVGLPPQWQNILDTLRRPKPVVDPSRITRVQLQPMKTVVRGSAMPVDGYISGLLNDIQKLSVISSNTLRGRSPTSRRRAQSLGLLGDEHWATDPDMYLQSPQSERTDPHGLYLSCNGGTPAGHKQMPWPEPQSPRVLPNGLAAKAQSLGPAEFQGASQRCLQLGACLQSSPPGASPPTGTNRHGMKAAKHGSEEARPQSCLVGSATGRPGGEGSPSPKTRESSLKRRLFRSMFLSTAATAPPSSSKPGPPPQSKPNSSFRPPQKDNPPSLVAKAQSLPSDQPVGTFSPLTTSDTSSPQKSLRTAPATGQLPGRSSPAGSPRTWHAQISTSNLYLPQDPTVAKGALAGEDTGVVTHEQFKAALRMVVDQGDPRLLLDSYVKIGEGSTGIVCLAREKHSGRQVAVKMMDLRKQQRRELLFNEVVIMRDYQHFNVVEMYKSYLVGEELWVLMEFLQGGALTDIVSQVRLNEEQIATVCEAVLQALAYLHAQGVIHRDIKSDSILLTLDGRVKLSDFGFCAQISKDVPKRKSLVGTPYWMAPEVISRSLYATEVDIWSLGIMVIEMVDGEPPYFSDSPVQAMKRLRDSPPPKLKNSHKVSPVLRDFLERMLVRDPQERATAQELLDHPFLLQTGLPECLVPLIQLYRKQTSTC
How it was run: as §1

ZAP70 = target: T6, ZAP70 (Homo sapiens, UniProt P43403); conditions: estimated, abridged dose response curve, read-out: Kinase inhibitory activity EC50
T6 construct: purchased Invitrogen (SelectScreen)
How it was run: as §1

ABL1 Y253F = target: T7, ABL1 Y253F (Homo sapiens, UniProt P00519, Y253F); conditions: estimated, abridged dose response curve, read-out: Kinase inhibitory activity EC50
T7 construct: purchased Invitrogen (SelectScreen platform)
How it was run: as §1

FLT4 (VEGFR3) = target: T8, FLT4 (VEGFR3) (Homo sapiens, UniProt P35916); conditions: estimated, abridged dose response curve, read-out: Kinase inhibitory activity EC50
T8 construct: purchased Invitrogen, Inc. (SelectScreen platform)
How it was run: as §1

CSNK1A1 (CK1 alpha 1) = target: T9, CSNK1A1 (CK1 alpha 1) (Homo sapiens, UniProt P48729); conditions: estimated, abridged dose response curve, read-out: Kinase inhibitory activity EC50
T9 construct: purchased Invitrogen (SelectScreen platform)
T9 sequence (P48729 whole entry): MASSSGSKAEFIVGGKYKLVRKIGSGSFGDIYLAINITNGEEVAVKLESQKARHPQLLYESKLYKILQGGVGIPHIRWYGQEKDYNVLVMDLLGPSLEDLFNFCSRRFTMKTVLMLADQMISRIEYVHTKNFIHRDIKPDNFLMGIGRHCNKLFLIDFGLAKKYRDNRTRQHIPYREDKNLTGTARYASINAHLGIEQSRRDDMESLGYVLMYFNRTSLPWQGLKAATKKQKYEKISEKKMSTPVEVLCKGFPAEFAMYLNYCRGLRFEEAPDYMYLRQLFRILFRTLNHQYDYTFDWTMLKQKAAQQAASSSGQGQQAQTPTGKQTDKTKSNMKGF
How it was run: as §1

PRKCA (PKC alpha) = target: T10, PRKCA (PKC alpha) (Homo sapiens, UniProt P17252); conditions: estimated, abridged dose response curve, read-out: Kinase inhibitory activity EC50
T10 construct: purchased Invitrogen (SelectScreen platform)
How it was run: as §1

GRK7 = target: T11, GRK7 (Homo sapiens, UniProt Q8WTQ7)
T11 construct: purchased Invitrogen (SelectScreen platform)
How it was run: as §1

PRKX = target: T12, PRKX (Homo sapiens, UniProt P51817); conditions: estimated, abridged dose response curve, read-out: Kinase inhibitory activity EC50
T12 construct: purchased Invitrogen (SelectScreen platform)
T12 sequence (P51817 whole entry): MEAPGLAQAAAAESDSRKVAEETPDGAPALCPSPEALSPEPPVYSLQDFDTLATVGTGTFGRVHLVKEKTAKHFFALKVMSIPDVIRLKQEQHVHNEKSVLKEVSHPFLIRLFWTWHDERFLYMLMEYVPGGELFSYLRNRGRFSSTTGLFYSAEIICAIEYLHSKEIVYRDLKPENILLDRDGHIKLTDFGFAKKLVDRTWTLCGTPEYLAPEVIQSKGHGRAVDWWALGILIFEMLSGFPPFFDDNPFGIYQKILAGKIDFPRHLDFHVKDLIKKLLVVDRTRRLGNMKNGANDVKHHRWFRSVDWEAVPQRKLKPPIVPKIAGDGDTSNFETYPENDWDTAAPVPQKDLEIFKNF
How it was run: as §1

ABL1 E255K = target: T13, ABL1 E255K (Homo sapiens, UniProt P00519, E255K); conditions: estimated, abridged dose response curve, read-out: Kinase inhibitory activity EC50
T13 construct: purchased Invitrogen (SelectScreen platform)
How it was run: as §1

CDK5/p25 = target: T14, CDK5/p25 (Homo sapiens, UniProt Q00535); conditions: estimated, abridged dose response curve, read-out: Kinase inhibitory activity EC50
T14 construct: purchased Invitrogen (SelectScreen platform)
How it was run: as §1

JAK2 JH1 JH2 = target: T15, JAK2 JH1 JH2 (Homo sapiens, UniProt O60674); conditions: estimated, abridged dose response curve, read-out: Kinase inhibitory activity EC50
T15 construct: JAK2 JH1 JH2; purchased Invitrogen (SelectScreen platform)
How it was run: as §1

PDGFRA V561D = target: T16, PDGFRA V561D (Homo sapiens, UniProt P16234, V561D); conditions: estimated, abridged dose response curve, read-out: Kinase inhibitory activity EC50
T16 construct: purchased Invitrogen (SelectScreen platform)
T16 sequence (P16234 24-1089 V561D): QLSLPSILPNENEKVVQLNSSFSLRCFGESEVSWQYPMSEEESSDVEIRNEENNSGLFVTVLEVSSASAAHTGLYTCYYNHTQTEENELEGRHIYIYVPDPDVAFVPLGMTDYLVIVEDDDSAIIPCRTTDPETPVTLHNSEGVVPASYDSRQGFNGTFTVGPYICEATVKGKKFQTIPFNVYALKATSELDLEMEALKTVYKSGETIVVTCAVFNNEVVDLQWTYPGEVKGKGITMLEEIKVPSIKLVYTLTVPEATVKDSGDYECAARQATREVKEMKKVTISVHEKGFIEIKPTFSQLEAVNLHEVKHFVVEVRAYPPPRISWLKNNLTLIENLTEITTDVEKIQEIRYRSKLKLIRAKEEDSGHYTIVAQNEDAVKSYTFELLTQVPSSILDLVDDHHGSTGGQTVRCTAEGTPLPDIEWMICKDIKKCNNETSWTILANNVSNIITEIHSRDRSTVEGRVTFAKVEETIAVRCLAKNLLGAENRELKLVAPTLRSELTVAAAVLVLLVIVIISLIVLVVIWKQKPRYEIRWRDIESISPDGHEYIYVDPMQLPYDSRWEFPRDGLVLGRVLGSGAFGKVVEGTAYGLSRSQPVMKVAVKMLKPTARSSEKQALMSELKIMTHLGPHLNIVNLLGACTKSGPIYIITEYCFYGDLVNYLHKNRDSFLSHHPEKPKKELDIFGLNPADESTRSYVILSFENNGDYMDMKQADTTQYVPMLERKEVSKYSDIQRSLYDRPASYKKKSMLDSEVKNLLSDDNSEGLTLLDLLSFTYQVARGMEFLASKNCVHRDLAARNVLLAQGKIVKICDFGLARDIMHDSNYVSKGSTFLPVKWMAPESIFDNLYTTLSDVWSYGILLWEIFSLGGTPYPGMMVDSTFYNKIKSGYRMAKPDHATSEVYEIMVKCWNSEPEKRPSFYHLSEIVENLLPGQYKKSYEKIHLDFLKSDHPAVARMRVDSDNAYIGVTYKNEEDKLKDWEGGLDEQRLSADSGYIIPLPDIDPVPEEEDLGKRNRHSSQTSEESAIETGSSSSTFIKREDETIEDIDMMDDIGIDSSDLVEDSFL
How it was run: as §1

PHKG1 = target: T17, PHKG1 (Homo sapiens, UniProt Q16816); conditions: estimated, abridged dose response curve, read-out: Kinase inhibitory activity EC50
T17 construct: purchased Invitrogen, Inc. (SelectScreen platform)
T17 sequence (Q16816 whole entry): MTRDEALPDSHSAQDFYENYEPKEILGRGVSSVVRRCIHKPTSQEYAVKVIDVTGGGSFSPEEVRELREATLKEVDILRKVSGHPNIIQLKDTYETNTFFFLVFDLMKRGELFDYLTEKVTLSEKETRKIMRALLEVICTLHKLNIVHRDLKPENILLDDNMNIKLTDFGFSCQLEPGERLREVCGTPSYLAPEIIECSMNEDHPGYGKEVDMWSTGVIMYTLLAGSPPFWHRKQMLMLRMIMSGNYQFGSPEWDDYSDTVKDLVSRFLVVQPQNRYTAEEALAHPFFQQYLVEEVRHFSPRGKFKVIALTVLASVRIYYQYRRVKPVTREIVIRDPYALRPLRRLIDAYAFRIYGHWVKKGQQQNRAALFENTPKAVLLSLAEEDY
How it was run: as §1

NTRK1 (TRKA) = target: T18, NTRK1 (TRKA) (Homo sapiens, UniProt P04629)
T18 construct: purchased Invitrogen (SelectScreen)
How it was run: as §1

EPHB4 = target: T19, EPHB4 (Homo sapiens, UniProt P54760); conditions: estimated, abridged dose response curve, read-out: Kinase inhibitory activity EC50
T19 construct: purchased Invitrogen (SelectScreen service)
How it was run: as §1

DAPK3 (ZIPK) = target: T20, DAPK3 (ZIPK) (Homo sapiens, UniProt O43293); conditions: estimated, abridged dose response curve, read-out: Kinase inhibitory activity EC50
T20 construct: purchased Invitrogen, Inc. (SelectScreen platform)
How it was run: as §1

CSF1R (FMS) = target: T21, CSF1R (FMS) (Homo sapiens, UniProt P07333); conditions: estimated, abridged dose response curve, read-out: Kinase inhibitory activity EC50
T21 construct: purchased Invitrogen (SelectScreen platform)
How it was run: as §1

AURKA (Aurora A) = target: T22, AURKA (Aurora A) (Homo sapiens, UniProt O14965); conditions: estimated, abridged dose response curve, read-out: Kinase inhibitory activity EC50
T22 construct: purchased Invitrogen, Inc. (SelectScreen service)
T22 sequence (O14965 whole entry): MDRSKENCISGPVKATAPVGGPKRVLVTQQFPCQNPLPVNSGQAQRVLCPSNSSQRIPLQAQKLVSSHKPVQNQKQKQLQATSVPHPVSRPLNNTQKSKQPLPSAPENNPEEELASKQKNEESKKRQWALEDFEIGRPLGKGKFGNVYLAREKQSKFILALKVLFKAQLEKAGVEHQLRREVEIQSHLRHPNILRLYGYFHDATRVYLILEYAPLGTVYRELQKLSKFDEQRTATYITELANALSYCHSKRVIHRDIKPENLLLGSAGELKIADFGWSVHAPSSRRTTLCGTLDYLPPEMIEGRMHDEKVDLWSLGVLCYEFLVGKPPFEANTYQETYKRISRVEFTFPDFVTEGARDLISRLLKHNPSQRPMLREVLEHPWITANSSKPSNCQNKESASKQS
How it was run: as §1

NTRK3 (TRKC) = target: T23, NTRK3 (TRKC) (Homo sapiens, UniProt Q16288)
T23 construct: purchased Invitrogen, Inc. (SelectScreen platform)
T23 sequence (Q16288 32-839): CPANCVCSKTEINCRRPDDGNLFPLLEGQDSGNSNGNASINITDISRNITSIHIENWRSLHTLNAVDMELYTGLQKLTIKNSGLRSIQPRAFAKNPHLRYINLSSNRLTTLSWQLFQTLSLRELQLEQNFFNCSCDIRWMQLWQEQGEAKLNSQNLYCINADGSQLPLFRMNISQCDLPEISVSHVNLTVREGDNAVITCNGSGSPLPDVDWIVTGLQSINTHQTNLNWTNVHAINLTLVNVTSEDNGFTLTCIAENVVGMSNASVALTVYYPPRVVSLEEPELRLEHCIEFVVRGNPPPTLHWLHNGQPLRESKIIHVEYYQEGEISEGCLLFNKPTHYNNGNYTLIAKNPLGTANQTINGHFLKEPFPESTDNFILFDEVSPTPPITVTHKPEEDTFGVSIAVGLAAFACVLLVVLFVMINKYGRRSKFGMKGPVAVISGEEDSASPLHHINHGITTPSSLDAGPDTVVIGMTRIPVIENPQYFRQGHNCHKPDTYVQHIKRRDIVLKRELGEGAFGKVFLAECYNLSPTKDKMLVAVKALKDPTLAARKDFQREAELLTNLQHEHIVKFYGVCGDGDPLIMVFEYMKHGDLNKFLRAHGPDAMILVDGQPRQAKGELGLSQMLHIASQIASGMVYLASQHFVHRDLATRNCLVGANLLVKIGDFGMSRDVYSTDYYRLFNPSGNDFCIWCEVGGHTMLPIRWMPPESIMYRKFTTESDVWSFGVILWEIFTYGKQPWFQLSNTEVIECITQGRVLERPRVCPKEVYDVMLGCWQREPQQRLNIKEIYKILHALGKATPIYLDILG
How it was run: as §1

STK22D (TSSK1) = target: T24, STK22D (TSSK1) (Homo sapiens, UniProt Q9BXA7); conditions: estimated, abridged dose response curve, read-out: Kinase inhibitory activity EC50
T24 construct: purchased Invitrogen, Inc. (SelectScreen platform)
T24 sequence (Q9BXA7 whole entry): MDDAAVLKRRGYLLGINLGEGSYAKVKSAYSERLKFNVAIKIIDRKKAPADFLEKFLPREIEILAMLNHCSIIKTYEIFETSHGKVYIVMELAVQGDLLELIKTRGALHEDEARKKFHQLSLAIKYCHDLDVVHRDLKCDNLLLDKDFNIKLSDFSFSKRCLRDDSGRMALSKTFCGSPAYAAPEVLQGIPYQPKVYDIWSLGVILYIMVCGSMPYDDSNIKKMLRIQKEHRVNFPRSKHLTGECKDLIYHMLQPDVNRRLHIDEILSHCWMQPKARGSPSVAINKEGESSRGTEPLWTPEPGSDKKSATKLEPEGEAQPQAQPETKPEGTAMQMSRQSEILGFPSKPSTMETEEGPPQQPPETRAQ
How it was run: as §1

MET (cMet) = target: T25, MET (cMet) (Homo sapiens, UniProt P08581); conditions: estimated, abridged dose response curve, read-out: Kinase inhibitory activity EC50
T25 construct: purchased Invitrogen (SelectScreen platform)
How it was run: as §1

ROCK1 = target: T26, ROCK1 (Homo sapiens, UniProt Q13464); conditions: estimated, abridged dose response curve, read-out: Kinase inhibitory activity EC50
T26 construct: purchased Invitrogen (SelectScreen platform)
How it was run: as §1

Row | SMILES | EC50 (MAP2K1 (MEK1)) [µM] | EC50 (CLK3) [µM] | EC50 (MUSK) [nM] | EC50 (LTK (TYK1)) [µM] | EC50 (PAK6) [µM] | EC50 (ZAP70) [µM] | EC50 (ABL1 Y253F) [µM] | EC50 (FLT4 (VEGFR3)) [nM] | EC50 (CSNK1A1 (CK1 alpha 1)) [µM] | EC50 (PRKCA (PKC alpha)) [µM] | EC50 (PRKX) [nM] | EC50 (ABL1 E255K) [µM] | EC50 (CDK5/p25) [nM] | EC50 (JAK2 JH1 JH2) [µM] | EC50 (PDGFRA V561D) [nM] | EC50 (PHKG1) [nM] | EC50 (EPHB4) [µM] | EC50 (DAPK3 (ZIPK)) [nM] | EC50 (CSF1R (FMS)) [nM] | EC50 (AURKA (Aurora A)) [µM] | other results
1 | CCN(CC)CCNc1ccc2ncn3c4ccc(O)cc4c(=O)c1c23 [Symadex, 5-(2-(diethylamino)ethylamino)-8-hydroxy-6H-imidazo[4,5,1-de]acridin-6-one, reference compound] | > 5 | > 5 | 3710 | > 5 | > 5 | > 5 | 4.49 | 3960 | 3.48 | > 5 | 3560 | > 5 | > 5000 | > 5 | 83 | 2200 | > 5 | > 5000 | 428 | > 5 | EC50 (GRK7): > 5 µM; EC50 (NTRK1 (TRKA)): 1430 nM; EC50 (NTRK3 (TRKC)): 3720 nM; EC50 (STK22D (TSSK1)): 1950 nM; EC50 (MET (cMet)): > 5 µM; EC50 (ROCK1): > 5000 nM
2 | CN(C)CCCNc1ccc2ncn3c4ccc5[nH]ncc5c4c(=O)c1c23 [Compound (IV)] | > 5 | > 5 | 1430 | > 5 | > 5 | > 5 | 2.52 | 1490 | > 5 | > 5 | 1400 | 3.72 | 1580 | > 5 | 60 | 1010 | > 5 | 973 | 205 | > 5 | EC50 (GRK7; GRK7, estimated, abridged dose response curve, read-out: Kinase inhibitory activity EC50): > 5 µM; EC50 (NTRK1 (TRKA); NTRK1 (TRKA), estimated, abridged dose response curve, read-out: Kinase inhibitory activity EC50): 438 nM; EC50 (NTRK3 (TRKC); NTRK3 (TRKC), estimated, abridged dose response curve, read-out: Kinase inhibitory activity EC50): 240 nM; EC50 (STK22D (TSSK1)): 2020 nM; EC50 (MET (cMet)): > 5 µM; EC50 (ROCK1): 487 nM
